Where two headings read alike, the source gives them in different places.
Experiments:
[1] = test system: SV40 immortalized human corneal epithelial cell strain (HCEC)
Method: (§1) Cells Used: The corneal cell used herein was SV40 immortalized human corneal epithelial cell strain (HCEC) (Araki-Sasaki et al., IOVS, 1995, 36:614-621) and the conjunctival cell used herein was Chang's human conjunctival epithelial cell strain (CCL-20.2) (ATC CCCL-20.2).
(§2) Experiments: The cells were cultivated to a density of 5×10^4 cells/mL in a growth medium containing 10% serum, inoculated in a 96-well multiplate in an amount of 100 μL/well and cultivated at 37° C. overnight. After the cultivation thereof to a confluent of 30 to 50%, the culture medium was dissolved in a fresh culture medium, followed by the addition of stepwise diluted MS and further diclofenac sodium and the subsequent cultivation at 37° C. for 24 hours. After the cultivation, each well was washed, followed by the addition of a fresh culture medium (100 μL/well) and WST-8 (10 μL/well; Cell Counting Kit-8 available from DOJIN Chemical Co., Ltd.), subsequent cultivation for 1.5 hour and the determination of the absorbance at 450-660 nm to thus calculate the viable cell count.
(§3) Method for Evaluating Toxicity: A test group free of any candidate compound was used as a negative control, the absorbance thereof was assumed to be 100% and a dose-correlation curve was prepared, which was expressed as the cell survival rates as a function of the concentration of each test substance.

[2] = test system: Chang's human conjunctival epithelial cell strain (CCL-20.2); assay type: cell-based
Method: as §1, §2, §3

corneal epithelial cells [3] = details: cited from earlier work; for effect on healing of the damaged area of the epithelium: addition to the monolayer culture
corneal epithelial cells [4] = details: cited from earlier work
[5] = test system: epithelial cells of lenses; details: cited from earlier work
corneal epithelial cells [6] = details: cultivation of the epithelial cells; cited from earlier work
[7] = MS 0.01 μM + diclofenac sodium 0.25 mM
[8] = MS 0.01 μM + diclofenac sodium 0.5 mM
[9] = MS 0.01 μM, diclofenac sodium 0 mM
[10] = MS 0.1 μM + diclofenac sodium 0.25 mM
[11] = MS 0.1 μM + diclofenac sodium 0.5 mM
[12] = MS 0.1 μM, diclofenac sodium 0 mM
[13] = MS 1 μM + diclofenac sodium 0.25 mM
[14] = MS 1 μM + diclofenac sodium 0.5 mM
[15] = MS 1 μM, diclofenac sodium 0 mM
[16] = MS 10 μM + diclofenac sodium 0.25 mM
[17] = MS 10 μM + diclofenac sodium 0.5 mM
[18] = MS 10 μM, diclofenac sodium 0 mM
[19] = MS 100 μM + diclofenac sodium 0.25 mM
[20] = MS 100 μM + diclofenac sodium 0.5 mM
[21] = MS 100 μM, diclofenac sodium 0 mM
[22] = added together with diclofenac sodium
[23] = diclofenac sodium 0.25 mM, MS 0 μM, 24 hours
[24] = diclofenac sodium 0.5 mM, MS 0 μM, 24 hours

CCCCC(C)(O)C/C=C/[C@H]1[C@H](O)CC(=O)[C@@H]1CCCCCCC(=O)OC (mixture of isomers) [Misoprostol]
cell survival rate (% of negative control) [1, 7]: 69.9 ± 8.3%
cell survival rate (% of negative control) [1, 8]: 59.2 ± 10.4%
cell survival rate (% of negative control) ([1]; MS 0.01 μM + diclofenac sodium 1 mM): 21.1 ± 9.9%
cell survival rate (% of negative control) [1, 9]: 87.2 ± 13.2%
cell survival rate (% of negative control) [1, 10]: 72.5 ± 12.6%
cell survival rate (% of negative control) [1, 11]: 61.6 ± 13.6%
cell survival rate (% of negative control) ([1]; MS 0.1 μM + diclofenac sodium 1 mM): 22.2 ± 8.3%
cell survival rate (% of negative control) [1, 12]: 98.9 ± 20.4%
cell survival rate (% of negative control) [1, 13]: 73.1 ± 11.7%
cell survival rate (% of negative control) [1, 14]: 68.8 ± 17.1%
cell survival rate (% of negative control) ([1]; MS 1 μM + diclofenac sodium 1 mM): 22.4 ± 8.0%
cell survival rate (% of negative control) [1, 15]: 99.1 ± 22.3%
cell survival rate (% of negative control) [1, 16]: 69.6 ± 10.5%
cell survival rate (% of negative control) [1, 17]: 68.4 ± 13.4%
cell survival rate (% of negative control) ([1]; MS 10 μM + diclofenac sodium 1 mM): 22.6 ± 9.5%
cell survival rate (% of negative control) [1, 18]: 102.4 ± 24.5%
cell survival rate (% of negative control) [1, 19]: 31.7 ± 8.8%
cell survival rate (% of negative control) [1, 20]: 7.2 ± 4.5%
cell survival rate (% of negative control) ([1]; MS 100 μM + diclofenac sodium 1 mM): −1.3 ± 1.3%
cell survival rate (% of negative control) [1, 21]: 99.2 ± 30.7%
cell survival rate (% of negative control) ([2]; MS 0.01 μM + diclofenac sodium 0.125 mM): 91.1 ± 8.1%
cell survival rate (% of negative control) [2, 7]: 42.6 ± 4.9%
cell survival rate (% of negative control) [2, 8]: 33.1 ± 7.4%
cell survival rate (% of negative control) [2, 9]: 93.0 ± 14.8%
cell survival rate (% of negative control) ([2]; MS 0.1 μM + diclofenac sodium 0.125 mM): 97.1 ± 4.5%
cell survival rate (% of negative control) [2, 10]: 45.0 ± 6.7%
cell survival rate (% of negative control) [2, 11]: 34.2 ± 9.3%
cell survival rate (% of negative control) [2, 12]: 98.6 ± 20.2%
cell survival rate (% of negative control) ([2]; MS 1 μM + diclofenac sodium 0.125 mM): 96.4 ± 8.4%
cell survival rate (% of negative control) [2, 13]: 44.0 ± 6.4%
cell survival rate (% of negative control) [2, 14]: 34.4 ± 12.2%
cell survival rate (% of negative control) [2, 15]: 104.0 ± 26.6%
cell survival rate (% of negative control) ([2]; MS 10 μM + diclofenac sodium 0.125 mM): 97.8 ± 9.6%
cell survival rate (% of negative control) [2, 16]: 46.4 ± 7.3%
cell survival rate (% of negative control) [2, 17]: 33.7 ± 9.4%
cell survival rate (% of negative control) [2, 18]: 99.5 ± 22.2%
cell survival rate (% of negative control) ([2]; MS 100 μM + diclofenac sodium 0.125 mM): 55.4 ± 14.7%
cell survival rate (% of negative control) [2, 19]: 31.5 ± 7.4%
cell survival rate (% of negative control) [2, 20]: 28.7 ± 6.4%
cell survival rate (% of negative control) [2, 21]: 86.3 ± 12.0%
concentration at which MS per se had a cytotoxic effect ([2]; human, 24 h): 100 µM

CCCCC(C)(C)[C@H](O)/C=C/[C@H]1[C@H](O)CC(=O)[C@@H]1C/C=C\CCCC(=O)O [16,16-dimethyl prostaglandin E2]
effect on healing of the damaged epithelium (corneal epithelial cells [3]; added alone): does not show any effect on the healing of the damaged corneal epithelium
effect on healing of the damaged epithelium (corneal epithelial cells [3]; [22]): does not show any effect on the healing of the damaged corneal epithelium

O=C(O)Cc1ccccc1Nc1c(Cl)cccc1Cl [Diclofenac Sodium, diclofenac sodium]
effect on epithelium extension promoted by EGF (corneal epithelial cells [4]; added simultaneously with EGF): inhibit the epithelium extension-promoting effect due to the EGF
effect on extension of the corneal epithelial cells (corneal epithelial cells [4]; agent alone): does not affect the extension of the corneal epithelial cells
effect on proliferation of lens epithelial cells ([5]; 25, 50 and 100 μM added to the culture medium): control of the proliferation of the epithelial cells
effect on growth of the corneal epithelial cells ([1]; 0.25 mM, 0.5 mM or 1 mM, dose-dependent): inhibits the growth of the corneal epithelial cells
cell survival rate (% of negative control) [1, 23]: 56.9 ± 8.7%
cell survival rate (% of negative control) [1, 24]: 48.2 ± 6.7%
cell survival rate (% of negative control) ([1]; diclofenac sodium 1 mM, MS 0 μM, 24 hours): 17.3 ± 5.4%
effect on proliferation of the epithelium (corneal epithelial cells [6]): do not affect the proliferation of the epithelium
effect on healing of the damaged area of the epithelium (corneal epithelial cells [3]): would inhibit the damaged epithelium-healing
cell survival rate (% of negative control) ([2]; diclofenac sodium 0.125 mM, MS 0 μM, 24 hours): 74.0 ± 10.0%
cell survival rate (% of negative control) [2, 23]: 37.8 ± 5.7%
cell survival rate (% of negative control) [2, 24]: 29.3 ± 5.6%

CCCCC[C@H](O)/C=C/[C@H]1[C@H](O)CC(=O)[C@@H]1C/C=C\CCCC(=O)O [PGE2, prostaglandin E2]
effect on growth of lens epithelial cells ([5]; 1, 10, 50 and 100 μM added to the culture medium): permits the growth of the epithelial cells

CC(C)OC(=O)CCC/C=C\C[C@@H]1[C@@H](CC[C@@H](O)CCc2ccccc2)[C@H](O)C[C@@H]1O [latanoprost]
effect on healing of the damaged epithelium (corneal epithelial cells [3]; added alone): any such effect cannot be obtained
effect on healing of the damaged epithelium (corneal epithelial cells [3]; [22]): can recover the healing of the damaged epithelium

EGF: epithelium growth factor (EGF)
effect on healing of the damaged area of the epithelium (corneal epithelial cells [3]): would promote the healing of the wound on the damaged area
